In patent US5227384A, “5-substituted [4,5-c] imidazopyridines and pharmaceutical use thereof” (G. D. Searle & Co., priority 1991, dated 1993) one finds IC50 data, which are given here for 15 compounds.

Broadly, the IC50 is the concentration that gives 50% inhibition.

The subject of assay [1] is rabbit platelets. The assay is described as follows: PAF-induced platelet aggregation. It is filed as cell-based. The conditions noted are these: Oryctolagus cuniculus, washed rabbit platelets, 60 sec after PAF, IC50 by inspection of dose-response curves. As to the method:
(§1) PAF-induced platelet aggregation and secretion: Washed, [^3 H]serotonin-labeled rabbit platelets were prepared as previously described in COX, C. P., J. LINDEN and S. I. SAID: VIP elevates platelet cyclic AMP (cAMP) levels and inhibits in vitro platelet activation induced by platelet-activating factor (PAF). Peptides 5:25-28, 1984, and maintained in an atmosphere of 5% CO2 at 37° C. until used in the bioassay. […] Aggregation was continuously monitored on a strip-chart recorder and recorded as the height of the tracing at 60 sec after the addition of PAF. Secretion of [^3 H]serotonin was measured in a sample of the platelet suspension removed at 60 sec after the addition of PAF. The percent inhibition of aggregation and secretion was calculated by comparing antagonist-treated platelets with the appropriate vehicle-treated control platelets. Each combination of antagonist and PAF was repeated 12-15 times, using several different platelet preparations. IC50 values were determined by inspection of the dose-response curves.

Assay [2] concerns rabbit platelets. The assay can be described thus: PAF-induced platelet secretion ([^3 H]serotonin). In kind it is cell-based. The conditions noted are these: Oryctolagus cuniculus, washed [^3 H]serotonin-labeled rabbit platelets, 60 sec after PAF, IC50 by inspection of dose-response curves. The protocol:
as §1

Assay [3] addresses PAF receptor (Human Platelet Membrane Receptors) (Homo sapiens, UniProt P25105).
Method: Inhibition of ^3 H-PAF Binding to Human Platelet Membrane Receptors
Receptor Preparation: Ten units of in-dated human packed platelets, each containing 45-65 ml platelet rich-plasma, were purchased from a commercial blood bank. Disposable plasticware was used throughout for receptor preparation. The units were pooled and a 1 ml aliquot was removed for determination of platelet concentration, using a Coulter Counter. The remaining platelet rich plasma was dispensed into 50 ml conical tubes and centrifuged at room temperature for 15 minutes at 3000 RPM (2300×g).Plasma was decanted and the platelets were resuspended in 35 ml of buffer 10 mM Trizma 7.0, 2 mM EDTA (dipotassium salt), and 150 mM KCl) and transferred to fresh tubes, which were centrifuged again as above. The platelets were washed 3 times, avoiding contaminating erythrocytes at the bottom of the pellets. Pellets were consolidated at each step, and by the last wash with EDTA/KCl buffer, most of the erythrocytes were in 1 tube. The pellets were resuspended in buffer containing 10 mM Trizma 7.0 with 10 mM CaCl2. Following centrifugation, the buffer was decanted and the pellets were resuspended in the CaCl2 buffer, avoiding erythrocyte contamination by recovering less than 100% of the platelet pellets. The resuspended platelets were dispensed in 8-10 ml aliquots into Corex tubes and disrupted by three cycles of freezing (dry ice/ethanol) and thawing (24° C.). The tubes were centrifuged at 40,000×g for 20 minutes at 4° C. Supernatants were decanted and each pellet was resuspended in 5-7 ml 10 mM Trizma 7.0. All resuspended pellets were pooled and aliquots of about 1200 ml were dispensed into 1.5 ml microfuge tubes and frozen at -70° C. Protein content was determined by a fluorescamine protein assay.
Assay Methods: Receptor Characterization--Each receptor preparation was evaluated to determine the number of receptor populations, the number of PAF receptor equivalents/mg protein and the dissociation constant (KD) for PAF binding. This required 2-3 experiments in which the protein concentration was held constant and the ^3 H-PAF ligand concentration was varied from approximately 0.10-2.5 nM and the data was analyzed by Scatchard methodology. Total incubation volume was 250 ml for these procedures and incubations were conducted at 24° C. for 30 minutes. For further experimentation, total incubation volumes are 500 ml. Protein and ligand concentrations were adjusted to give 0.075 nM receptor equivalents in the presence of 0.75 nM ^3 H-PAF. Each receptor preparation was then used to determine the dose--response displacement relationship of unlabeled PAF and the PAF antagonist, triazolam.
Assay Methods: Routine Assay of Compounds--The compounds were weighed precisely and solubilized in quantities of DMSO such that a 5 ml aliquot in the incubate would deliver the desired compound concentration. Compounds tested for the first time in this assay were evaluated at a concentration of 50 mM in the incubation medium. […] Triazolam was always included in each screening assay as a compound inhibition control. […] Nonspecific binding control solution was made by drying to completion about 26.2 ml unlabeled PAF under a stream of argon. PAF was resolubilized in 1000 ml DMSO. When delivered in a 5 ml aliquot, the final concentration of 1 mM PAF in the incubate exceeded by 1000-fold the concentration of ^3 H-PAF.
All buffers containing proteins were made at room temperature on the day of assay. Assay buffer was prepared by adding 125 mg human albumin to 25 ml of stock buffer (10 mM Trizma 7.4 with 20 mM CaCl2). Rinse buffer was made by adding 20 grams bovine serum albumin to i000 ml stock buffer. About 80 ml of rinse buffer was decanted into a small pyrex dish and used to soak 65 Whatman GF/C 2.5 cm glass filters. The remaining rinse buffer was poured into a repipet and placed into an ice bath along with the filters.

Each structure is given as a SMILES string.

Sequence of PAF receptor (Human Platelet Membrane Receptors) (P25105 whole entry): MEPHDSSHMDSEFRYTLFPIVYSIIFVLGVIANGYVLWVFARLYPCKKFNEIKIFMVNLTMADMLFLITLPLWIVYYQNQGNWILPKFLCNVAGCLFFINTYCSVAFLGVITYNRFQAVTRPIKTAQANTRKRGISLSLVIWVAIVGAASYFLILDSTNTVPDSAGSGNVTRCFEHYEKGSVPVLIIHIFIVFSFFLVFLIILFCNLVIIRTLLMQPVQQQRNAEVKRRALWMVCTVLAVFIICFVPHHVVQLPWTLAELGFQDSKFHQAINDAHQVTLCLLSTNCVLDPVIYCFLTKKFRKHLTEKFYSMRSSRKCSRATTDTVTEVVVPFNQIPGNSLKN

Turning to `CC(C)N(C(=O)c1ccc(Cn2ccc3ncnc-3c2)c(F)c1)C1CCCCC1` [5-[4-(N-isopropyl-N-cyclohexylcarboxamido)-2-fluorobenzyl]imidazo[4,5-c]pyridine], the IC50 with rabbit platelets [1] (1 min) and in the assay with rabbit platelets [2] (1 min) was 10 to 100 nM throughout.

Take `CC(C)(C)N(C(=O)c1ccc(Cn2ccc3ncnc-3c2)cc1)C1CCCCC1` [5-[4-(N-tert.butyl-N-cyclohexylcarboxamido)benzyl]imidazo[4,5-c]pyridine]: the IC50 is 10 to 100 nM with rabbit platelets [1] (1 min) and 1 to 10 nM with rabbit platelets [2] (1 min).

For the compound `CCC(CC)N(C(=O)c1ccc(Cn2ccc3ncnc-3c2)cc1)C1CCCCC1` [5-[4-(N-3-pentyl-N-cyclohexylcarboxamido)benzyl]imidazo[4,5-c]pyridine], the values for the IC50 in the assay with rabbit platelets [1] (1 min) and in the assay with rabbit platelets [2] (1 min) were 100 to 1000 nM and 10 to 100 nM, respectively.

In the case of `COc1cc(Cn2ccc3ncnc-3c2)ccc1C(=O)N(C1CCCC1)C1CC(C)CC(C)C1` (stereo not drawn) [N-cyclopentyl-N-(3,5-dimethylcyclohexyl)-4-(5H-imidazo[4,5-c]pyridin-5-ylmethyl)-2-methoxybenzamide], the IC50 (in assay [3]; with rabbit platelets [2]) was 1 nM throughout.

As to `COc1cc(C(=O)N(C)C2CCCCC2)ccc1Cn1ccc2ncnc-2c1` [5-[4-(N-methyl-N-cyclohexylcarboxamido)-2-methoxybenzyl]imidazo[4,5-c]pyridine], the half-inhibitory concentration (IC50) in the assay with rabbit platelets [1] (1 min) lay within 1000 to 10000 nM; with rabbit platelets [2] (1 min) it was 100 to 1000 nM.

As to `CN(C(=O)c1ccc(CCn2ccc3ncnc-3c2)cc1)C1CCCCC1` [5-[2-[4-(N-methyl-N-cyclohexylcarboxamido)phenyl]ethyl]imidazo[4,5-c]pyridine], the IC50 in the assay with rabbit platelets [1] (1 min) is 10000 to 100000 nM; with rabbit platelets [2] (1 min), 1000 to 10000 nM.

For `Cc1nc2ccn(Cc3ccc(C(=O)N(C4CCCC4)C4CCCC4)cc3)cc-2n1` [5-[4-(N,N-dicyclopentylcarboxamido)benzyl]-2-methylimidazo[4,5-c]pyridine], the IC50 in the assay with rabbit platelets [1] (1 min) was 1000 to 10000 nM; with rabbit platelets [2] (1 min) it was 100 to 1000 nM.

As for `Cc1cc(C(=O)N(C2CCCCC2)C2CCCC2)ccc1Cn1ccc2ncnc-2c1` [N-cyclohexyl-N-cyclopentyl-4-(5H)-imidazo[4,5-c]pyridin-5-ylmethyl)-3-methylbenzamide], the IC50 in assay [3] is 18 nM; in the assay on rabbit platelets [2], 2 nM.

`CCC(C)N(C(=O)c1ccc(Cn2ccc3ncnc-3c2)cc1)C1CCCCC1` (stereo not drawn) [5-[4-(N-sec.butyl-N-cyclohexylcarboxamido)benzyl]imidazo[4,5-c]pyridine]: the IC50 in the assay on rabbit platelets [1] (1 min) is 50 to 100 nM; with rabbit platelets [2] (1 min) it was 1 to 10 nM.

Take `CN(C(=O)c1cccc(Cn2ccc3ncnc-3c2)c1)C1CCCCC1` [5-[3-(N-methyl-N-cyclohexylcarboxamido)benzyl]imidazo[4,5-c]pyridine]: the IC50 with rabbit platelets [1] (1 min) and with rabbit platelets [2] (1 min) was 10000 to 100000 nM each time.

Regarding `CC(C)N(C(=O)c1cccc(Cn2ccc3ncnc-3c2)c1)C1CCCCC1` [5-[3-(N-isopropyl-N-cyclohexylcarboxamido)benzyl]imidazo[4,5-c]pyridine], the IC50 with rabbit platelets [1] (1 min) lay in the range of 50000 to 100000 nM; in the assay on rabbit platelets [2] (1 min), 1000 to 10000 nM.

Turning to `COc1cc(C(=O)N(C2CCCCC2)C2CCCC2)ccc1Cn1ccc2ncnc-2c1` [5-[4{-(N-cyclopentyl,N-cyclohexyl)carboxamido}-2-methoxybenzyl]imidazo[4,5-c]-pyridine], the IC50 in the assay with rabbit platelets [1] is 10 nM; in the assay with rabbit platelets [2] (1 min), 1 to 10 nM.

As to `CC(C)CN(C(=O)c1ccc(Cn2ccc3ncnc-3c2)cc1)C1CCCCC1` [5-[4-(N-isobutyl-N-cyclohexylcarboxamido)benzyl]imidazo[4,5-c]pyridine], the IC50 in the assay on rabbit platelets [1] worked out at 1000 nM; in the assay with rabbit platelets [2] it was 100 nM.

As for `COc1cc(C(=O)N(C2CCCC2)C2CCCC2)ccc1Cn1ccc2ncnc-2c1` [5-[4-(N,N-dicyclopentylcarboxamido)-2-methoxybenzyl]imidazo[4,5-c]pyridine], the concentration for half-maximal inhibition (IC50) with rabbit platelets [1] (1 min) is 10 to 100 nM; in the assay on rabbit platelets [2] (1 min), 1 to 10 nM.

On to `CN(C(=O)c1ccc(Cn2ccc3ncnc-3c2)c(F)c1)C1CCCCC1` [5-[4-(N,methyl-N-cyclohexylcarboxamido)-2-fluorobenzyl]imidazo[4,5-c]pyridine], for which the IC50 with rabbit platelets [1] (1 min) is 1000 to 10000 nM; in the assay on rabbit platelets [2] (1 min) it was 100 to 1000 nM.
